Results taken from patent publication US20070191372A1, “Dna-targeted benzotriazine 1,4-dioxides and their use in cancer therapy” (Auckland Uniservices Limited, priority 2002, published 2007).
Structures can show the parent of a compound that is named as a salt.

How the values were obtained:
murine SCCVII = experiment: Clonogenic assay under aerobic and hypoxic conditions, SCCVII; type: cell-based; details: SCVIII cells; for IC90: Mus musculus, 1 h, hypoxic, 60 min drug exposure, SN (hypoxic), read-out: C10 hypoxic; for HCR: ratio of C10 under aerobic and hypoxic conditions; for RHT: ratio of hypoxic TPZ C10 to hypoxic compound C10
Procedure: Evaluation of the Cytotoxicity of Compounds by Clonogenic Assay Under Aerobic and Hypoxic Conditions.
Compounds representative of the invention were evaluated under both aerobic and hypoxic conditions in clonogenic assays, using three cell lines: human colon carcinoma HT-29, murine SCCVII, and human lung adenocarcinoma LXFL. Clonogenic survival was determined using aerobic and hypoxic SCCVII cell suspensions. Drug exposures were performed using continuously stirred and gassed single cell suspensions (10^6 cells/mL) at 37° C., equilibrated with 5% CO2 in air or N2 for 60 min before drug addition. After a 60 min drug exposure cells were washed by centrifugation and plated to determine colony formation Cytotoxicity was measured as the concentration required to reduce plating efficiency to 10% of controls (C10). The hypoxic cytotoxicity ratio (HCR) was determined as the ratio of the C10 values under aerobic and hypoxic conditions. The relative hypoxic toxicity (RHT) was determined as the ratio of hypoxic TPZ C10 to hypoxic BTO C10. Abbreviations used in Table 2 are:
C10=The concentration of drug (in micromolar) to reduce viable cell numbers to 10% of those of control cell cultures grown under the same conditions but not exposed to drug
(§1) RHT=Relative hypoxic toxicity is defined as the ratio of concentrations of Tirapazamine/test compound to give equal cell killing under hypoxic conditions.
HCR=Hypoxic cytotoxicity ratio is defined as the ratio of drug concentrations under aerobic and hypoxic condition to produce equal cell survival (10%) determined by clonogenic assay

[1] = test system: human colon carcinoma HT-29; experiment: Proliferation assay (IC50) under aerobic and hypoxic conditions, HT-29; type: cell-based; details: for RHT: HT-29, ratio Tirapazamine/test compound under hypoxic conditions; for HCR: HT-29, ratio of IC50 under aerobic and hypoxic conditions; for IC50: Homo sapiens, HT-29, hypoxic (anoxia <0.001% O2), 4 h exposure
Procedure: (§2) Evaluation of the Cytotoxicity of Compounds by Proliferation Assay (IC50) Under Aerobic and Hypoxic Conditions.
(§3) Compounds representative of the invention were evaluated under both aerobic and hypoxic conditions in a proliferation assay (IC50), using two cell lines: human colon carcinoma HT-29, and human cervical carcinoma SiHa.
(§4) Drug exposures were performed in 96-well plates (Nunc) using either a 37° C. humidified incubator (20% O2, 5% CO2) or in the incubator compartment (37° C.) of an anaerobic chamber (Shell Lab) where palladium catalyst scrubbed gas (90% N2, 5% H2, 5% CO2) ensures severe anoxia (<0.001% O2). For each experiment, compounds were simultaneously tested under both oxic and hypoxic conditions against the HT-29 cell line and included TPZ as an independent internal control at the front and back of the assay (n=2). Final data was pooled from a series of seven independent experiments and is calculated using inter-experimental means. In all cases, 8-methyl-5-nitroquinoline was used as a second internal control to confirm that strict hypoxia was present during the experiment. (Siim et al. Br. J. Cancer 1994, 70, 596-603). Cell cultures were grown in αMEM (Gibco) containing 5% heat inactivated FCS and maintained in exponential growth phase. For each individual experiment an appropriate number of cells were seeded (HT-29=1000) into wells in αMEM÷10% FCS+10 mM added glucose+100 μM 2′-deoxycytidine (2′dCyd), and allowed to attach for 3 h. High glucose (final concentration 17 mM) and the presence of 2′-dCyd minimize hypoxia-induced cell cycle arrest. Replicates were then exposed to BTOs, using 2-fold serial dilutions in triplicate, for a further 4 h. Subsequently cells were washed free of compound using complete media (without glucose/2′-dCyd) and allowed to grow for 5 (oxic) or 6 (anoxic) days. Plates were stained as described previously (Wilson et al., J. Med. Chem. 1989, 32, 31-38) and IC50 values determined.
(§5) IC50=The concentration of drug (in micromolar) to reduce viable cell numbers to 50% of those of control cell cultures grown under the same conditions but not exposed to drug
as §1
(§6) HCR=Hypoxic cytotoxicity ratio is defined as the ratio of drug concentrations under aerobic and hypoxic condition to produce equal cell survival (50%) determined by proliferation assay

[2] = test system: human cervical carcinoma SiHa; experiment: Proliferation assay (IC50) under aerobic and hypoxic conditions, SiHa; type: cell-based; details: for IC50: Homo sapiens, hypoxic, 4 h exposure; for RHT: ratio Tirapazamine/test compound under hypoxic conditions; for HCR: ratio of IC50 under aerobic and hypoxic conditions
Procedure: as §2, §3, §4, §5, §1, §6

SMILES	melting point	RHT [1]	HCR [1]	IC50 [1]	other results
O=C(NCCCNc1n[n+]([O-])c2ccccc2[n+]1[O-])c1cccc2cc3ccccc3nc12 [Compound 17, N-{3-[(1,4-Dioxido-1,2,4-benzotriazin-3-yl)amino]propyl}-4-acridinecarboxamide]	–	–	–	–	IC90 (murine SCCVII): 4.8 µM; HCR (murine SCCVII): >6.3; RHT (murine SCCVII): 1.94
Cc1ccc2c(c1)[n+]([O-])c(NCCCNCCCNC(=O)c1cccc3nc4cccc(C)c4nc13)n[n+]2[O-] [Compound 88, 9-Methyl-N-[3-({3-[(6-methyl-1,4-dioxido-1,2,4-benzotriazin-3-yl)amino]propyl}amino)propyl]-1-phenazinecarboxamide]	80 to 83 °C	–	–	–	–
O=C(NCCCCCCNc1n[n+]([O-])c2ccccc2[n+]1[O-])c1cccc2cc3ccccc3nc12 [Compound 12, N-{6-[(1,4-Dioxido-1,2,4-benzotriazin-3-yl)amino]hexyl}-4-acridinecarboxamide]	196 to 198 °C	–	–	–	–
CN(C)CCCC(=O)c1cc(NC(=O)c2cc(NC(=O)CCCNc3n[n+]([O-])c4ccccc4[n+]3[O-])cn2C)cn1C [Compound 112, N-{5-[4-(Dimethylamino)butanoyl]-1-methyl-1H-pyrrol-3-yl}-4-({4-[(1,4-dioxido-1,2,4-benzotriazin-3-yl)amino]butanoyl}amino)-1-methyl-1H-pyrrole-2-carboxamide]	140 to 145 °C	–	–	–	–
Cc1ccc2c(c1)[n+]([O-])nc(NCCCN(C)CCCNC(=O)c1cccc3nc4ccccc4nc13)[n+]2[O-] [Compound 76, N-[3-(Methyl{3-[(7-methyl-1,4-dioxido-1,2,4-benzotriazin-3-yl)amino]propyl}amino)propyl]-1-phenazinecarboxamide]	118 to 122 °C	–	–	–	–
CN(CCCNC(=O)c1cccc2cccnc12)CCCNc1n[n+]([O-])c2ccccc2[n+]1[O-] [Compound 42, N-{3-[{3-[(1,4-Dioxido-1,2,4-benzotriazin-3-yl)amino]propyl}(methyl)amino]propyl}-8-quinolinecarboxamide]	–	11.2	86.2	0.517 µM	–
CN(CCCNC(=O)c1cccc2ccc(-c3ccncc3)nc12)CCCNc1n[n+]([O-])c2ccccc2[n+]1[O-] [Compound 43, N-{3-[{3-[(1,4-dioxido-1,2,4-benzotriazin-3-yl)amino]propyl}(methyl)amino]-propyl}-2-(4-pyridyl)-8-quinolinecarboxamide]	–	51.4	119	0.113 µM	IC90 (murine SCCVII): 1.4 µM; HCR (murine SCCVII): 10; RHT (murine SCCVII): 5.7
O=C(CCNc1ccnc2cc(Cl)ccc12)NCCCNc1n[n+]([O-])c2ccccc2[n+]1[O-] [Compound 65, 3-[(7-Chloro-4-quinolinyl)amino]-N-{3-[(1,4-dioxido-1,2,4-benzotriazin-3-yl)amino]propyl}propanamide]	202 °C (dec.)	–	–	–	–
Cc1ccc2c(c1)[n+]([O-])c(NCCCN(C)CCCNC(=O)c1cccc3nc4ccccc4nc13)n[n+]2[O-] [Compound 87, N-[3-(Methyl{3-[(6-methyl-1,4-dioxido-1,2,4-benzotriazin-3-yl)amino]propyl}amino)propyl]-1-phenazinecarboxamide]	111 to 114 °C	–	–	–	–
CN(CCCNC(=O)c1cccc2nc3ccccc3nc12)CCCc1n[n+]([O-])c2ccccc2[n+]1[O-] (as salt: hydrochloride) [Compound 63, N-{3-[[3-(1,4-Dioxido-1,2,4-benzotriazin-3-yl)propyl](methyl)amino]propyl}-1-phenazinecarboxamide]	173 °C	–	–	–	–
CN(CCCNC(=O)c1cccc2nc3ccccc3nc12)CCCc1n[n+]([O-])c2ccccc2[n+]1[O-] [Compound 63, N-{3-[[3-(1,4-Dioxido-1,2,4-benzotriazin-3-yl)propyl](methyl)amino]propyl}-1-phenazinecarboxamide]	–	167	129	0.034 µM	–
O=C(NCCCNc1n[n+]([O-])c2ccccc2[n+]1[O-])c1cccc2cc3ccccc3nc12 (as salt: hydrochloride) [Compound 17, N-{3-[(1,4-Dioxido-1,2,4-benzotriazin-3-yl)amino]propyl}-4-acridinecarboxamide]	192 °C	–	–	–	–
O=C(NCCNCCNc1n[n+]([O-])c2ccccc2[n+]1[O-])c1cccc2cc3ccccc3nc12 [Compound 37, N-[2-({2-[(1,4-Dioxido-1,2,4-benzotriazin-3-yl)amino]ethyl}amino)ethyl]-4-acridinecarboxamide]	–	74	160	0.079 µM	–
CN(CCNC(=O)c1cccc2cc3ccccc3nc12)CCNc1n[n+]([O-])c2ccccc2[n+]1[O-] [Compound 95, N-{2-[{2-[(1,4-Dioxido-1,2,4-benzotriazin-3-yl)amino]ethyl}(methyl)amino]ethyl}-4-acridinecarboxamide]	–	71	74	0.18 µM	IC90 (murine SCCVII): 1 µM; HCR (murine SCCVII): 400; RHT (murine SCCVII): 11; IC50 [2]: 0.076 µM; RHT [2]: 48; HCR [2]: 89
O=C(NCCOCCNc1n[n+]([O-])c2ccccc2[n+]1[O-])c1cccc2ccc(-c3ccncc3)nc12 [Compound 26, N-(2-{2-[(1,4-Dioxido-1,2,4-benzotriazin-3-yl)amino]ethoxy}ethyl)-2-(4-pyridinyl)-8-quinolinecarboxamide]	128 to 130 °C	–	–	–	–
COCCOc1ccc2c(c1)[n+]([O-])nc(NCCCN(C)CCCNC(=O)c1cccc3cc4ccccc4nc13)[n+]2[O-] [Compound 55, N-{3-[(3-{[7-(2-Methoxyethoxy)-1,4-dioxido-1,2,4-benzotriazin-3-yl]amino}propyl)(methyl)amino]propyl}-4-acridinecarboxamide]	–	47	97	0.124 µM	IC90 (murine SCCVII): 1.1 µM; HCR (murine SCCVII): 63.6; RHT (murine SCCVII): 10; IC50 [2]: 0.05 µM; RHT [2]: 72; HCR [2]: 124
Cc1cccc2nc3cccc(C(=O)NCCCNCCCNc4n[n+]([O-])c5ccccc5[n+]4[O-])c3nc12.Cl	183 to 186 °C	–	–	–	–
Cc1cccc2cc3cccc(C(=O)NCCCN(C)CCCNc4n[n+]([O-])c5ccccc5[n+]4[O-])c3nc12 [Compound 44, N-{3-[{3-[(1,4-dioxido-1,2,4-benzotriazin-3-yl)amino]propyl}(methyl)amino]-propyl}-5-methyl-4-acridinecarboxamide]	–	25.7	72.7	0.226 µM	IC90 (murine SCCVII): 0.16 µM; HCR (murine SCCVII): >187; RHT (murine SCCVII): 56.3
Cc1ccc2c(c1)[n+]([O-])c(NCCCN(C)CCCNC(=O)c1cccc3cc4ccccc4nc13)n[n+]2[O-] [Compound 85, N-[3-(Methyl{3-[(6-methyl-1,4-dioxido-1,2,4-benzotriazin-3-yl)amino]propyl}amino)propyl]-4-acridinecarboxamide]	–	26	134	0.222 µM	–
CN(CCCNC(=O)c1cccc2cc3ccccc3nc12)CCCc1n[n+]([O-])c2ccccc2[n+]1[O-] [Compound 62, N-{3-[[3-(1,4-dioxido-1,2,4-benzotriazin-3-yl)propyl](methyl)amino]propyl}-4-acridinecarboxamide]	–	274	157	0.021 µM	–
